In experiment [1] the test system is Male Sprague-Dawley rats. Nature of the experiment: Electroencephalogram recording and spectral analysis during continuous isoflurane. The class given is in vivo, rat. The conditions noted are these: isoflurane 1.0%. The method, then:
Electroencephalogram electrode placement, recording, and spectral analysis. Extradural electroencephalogram electrodes were surgically implanted at least 7 days prior to recording. General anesthesia was induced with xylazine (5-10 mg/kg IP) and ketamine (50-100 mg/kg IP), and supplemented with isoflurane (1-2%). A microdrill was used to make four holes at the following stereotactic coordinates: A0L0, A6L3, A6L-3, and A10L2 relative to the lambda.^12 Polytetrafluoroethylene coated, 200 μm diameter stainless steel electrode wires (A-M Systems, Sequim, Wash.) were inserted and secured with small stainless steel screws, and permanently fixed with dental acrylic cement. Carprofen (5 mg/kg SC) was administered for analgesia on the day of surgery, as well as on post-operative days 1, and 2. The potential difference between electrodes A0L0 and A6L3, or between electrodes A0L0 and A6L-3 (whichever gave less motion artifact), was referenced to A10L2 and recorded using a QP511 Quad AC Amplifier System (Grass Instruments, West Warwick, R.I.) and a USB-6009 14-bit data acquisition board (National Instruments, Austin, Tex.). Data was filtered between 0.3-100 Hz. No line filter was used. The sampling rate was 512 Hz. After baseline recordings were taken for 10 minutes while awake, rats were anesthetized with isoflurane and placed in the anesthetizing chamber. […] Therefore the inventors performed the electroencephalogram experiments in the prone position with the isoflurane dose fixed at 1.0%. These modifications allowed us to minimize electroencephalogram motion artifacts without restraining the animals. After a minimum isoflurane exposure of 40 minutes, normal saline was administered and the temperature probe was removed. Five minutes later, methylphenidate was administered. Spectral analysis was performed using Matlab 7.11 (Mathworks, Natick, Mass.) and the Chronux software (Cold Spring Harbor, N.Y.). 13 Spectrograms were calculated using sliding windows of 2 sec duration stepped through 0.05 sec. For each window, multitaper spectrum estimation was performed using 5 tapers. […]

Experiment [2] concerns the target norepinephrine transporter (Homo sapiens, UniProt P23975). The conditions noted are these: read-out: Ki, norepinephrine transporter; cited from earlier work.
The subject of experiment [3] is rats. Kind of experiment: D-MPH versus L-MPH reversal of isoflurane anesthesia, loss of righting reflex (LORR). As to conditions: intravenous, rat animal model. Format: in vivo, rat. The source says: Pure D-MPH (Focalin) is currently available in oral form for Attention Deficit Hyperactivity Disorder (ADHD), but it is not available for intravenous use.
Experiment [4] deals with Male Sprague-Dawley rats. Kind of experiment: Plethysmography during isoflurane general anesthesia. As to conditions: for Change in mean RR: after vs before methylphenidate 5 mg/kg IV.
From the text: Plethysmography. Rats were placed in a custom built plethysmography chamber and the isoflurane concentration in the chamber was maintained at 1.5%. […] A differential pressure transducer and demodulator (Models CD15 and MP45-14-871; Validyne Engineering, Northridge, Calif.) were used to convert the chamber pressure to an analog signal. The signal was high pass filtered at 15 sec, acquired at 100 Hz, and analyzed in four second epochs using a USB-6009 data acquisition board (National Instruments, Austin, Tex.) and LabView Software (version 8.5 for Macintosh). Chamber carbon dioxide levels were maintained at or less than 0.5% in the open flow configuration. A heating pad was used to warm the rat from beneath. Chamber air temperature and relative humidity were measured with a thermometer-hygrometer (Fisher Scientific, Pittsburgh, Pa.) and used to estimate tidal volumes during intermittent chamber closure using methods described by Drorbaugh et al.^16
Experiment [5] deals with rats. Nature of the experiment: Restoration of righting and EEG during continuous propofol anesthesia. The class given is in vivo, rat. As to conditions: MPH 5 mg/kg IV, continuous propofol infusion. The method, then:
For the second experiment, 2 IV catheters were placed and a continuous propofol infusion was started in rats with pre-implanted EEG electrodes. After establishing the minimum plasma concentration of propofol required to maintain loss of righting, the second IV catheter was flushed with NS, and 5 minutes later MPH (5 mg/kg) was administered.

Experiment [6] has as its system rats. Kind of experiment: Time to emergence after a single dose of propofol. The class given is in vivo, rat. The conditions noted are these: propofol 8 mg/kg IV, MPH 5 mg/kg IV 45 sec later; mean±SE; n=6. The protocol: For the first experiment, a lateral tail vein IV catheter was placed in rats under isoflurane anesthesia. […] Time to emergence was defined as the time until restoration of righting occurred. Statistical analysis was performed using the Mann-Whitney test.

The test system of experiment [7] is Male Sprague-Dawley rats. Nature of the experiment: Arterial blood gas analysis during isoflurane general anesthesia. Format: in vivo, rat. The protocol: Arterial Blood Gas and Hemodynamic Recordings. Rats with femoral artery catheters (Charles River Laboratories, Wilmington, Mass.) were placed in the anesthetizing chamber after lateral tail vein IV catheter placement. The isoflurane dose was kept constant at 1.5%. Mean arterial blood pressure and heart rate were measured using a pressure transducer (TruWave, Edwards Life Sciences, Irvine, Calif.) interfaced with a custom-built amplifier (AD620 operational amplifier, Jameco Electronics, Belmont, Calif.). […] Samples were promptly analyzed using CG4+ cartridges in a Vetscan iStat 1 (Abaxis, Union City, Calif.) blood gas analyzer.
To provide a conservative check on the assessments made by the 95% confidence intervals and the parametric tests and non-parametric tests were also used to assess statistical significance. The Mann-Whitney test was used to test the hypothesis that methylphenidate hastens time to emergence from isoflurane general anesthesia, and to test the dose-dependence of methylphenidate on time to righting during continuous isoflurane general anesthesia. A paired t-test was used to test the hypothesis that methylphenidate produces a respiratory alkalosis during isoflurane general anesthesia. The inventors used the two-sided Kolmogorov-Smirnov test with a Bonferonni correction to compare spectra in animals before and after receiving methylphenidate. The inventors considered a result to be statistically significant based on the 95% confidence intervals comparing two groups if zero was not in the interval, based on hypothesis tests if the p-values were less than 0.05 or in the case of the Bayesian analyses, if the relevant posterior probability was greater than 0.95.

The mark [8] stands for this setting: individual animals pretreated with droperidol (0.5 mg/kg IV), isoflurane 1.5%.
Where [9] appears, read: individual animals pretreated with normal saline, isoflurane 1.5%.
Setting [10] is: arterial blood 15 minutes after methylphenidate, isoflurane 1.5%, n = 6.

These results are taken from patent publication US11723589B2 (The General Hospital Corporation, priority 2010, dated 2023).

Usually Ki stands for a dissociation constant, usually derived from enzyme kinetics or from competition with a known ligand.

Where “and” joins values, the source holds several entries; their conditions need not be identical. Equal entries are not always repeated. Entries after “also recorded” stand apart in the source; their conditions may differ.

Chain of norepinephrine transporter (P23975 whole entry): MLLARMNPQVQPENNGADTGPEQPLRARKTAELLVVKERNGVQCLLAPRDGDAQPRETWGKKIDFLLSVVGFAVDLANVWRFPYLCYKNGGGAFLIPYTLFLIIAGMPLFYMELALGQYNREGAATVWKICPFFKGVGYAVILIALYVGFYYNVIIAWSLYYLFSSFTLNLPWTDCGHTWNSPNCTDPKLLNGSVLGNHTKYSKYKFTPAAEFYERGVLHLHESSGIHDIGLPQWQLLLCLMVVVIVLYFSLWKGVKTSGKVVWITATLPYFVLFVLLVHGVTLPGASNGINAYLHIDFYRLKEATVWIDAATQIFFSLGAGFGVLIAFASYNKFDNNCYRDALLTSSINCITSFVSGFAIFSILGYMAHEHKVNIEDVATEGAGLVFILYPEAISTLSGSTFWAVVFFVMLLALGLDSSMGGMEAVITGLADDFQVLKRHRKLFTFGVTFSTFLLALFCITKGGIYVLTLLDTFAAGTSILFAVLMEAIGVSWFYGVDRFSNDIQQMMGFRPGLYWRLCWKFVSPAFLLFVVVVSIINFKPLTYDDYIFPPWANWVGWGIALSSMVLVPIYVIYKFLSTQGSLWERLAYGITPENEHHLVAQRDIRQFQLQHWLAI

For `COC(=O)[C@H](c1ccccc1)[C@H]1CCCCN1` (racemic) [methylphenidate], in the experiment with Male Sprague-Dawley rats [1] (droperidol 0.5 mg/kg IV five minutes before methylphenidate 5 mg/kg IV), the “EEG changes after methylphenidate with droperidol pretreatment” value is “did not induce electroencephalogram changes consistent with arousal; also recorded: failed to induce these electroencephalogram changes; also recorded: the shift in peak power from delta to theta was absent”. For the same compound, the “persistence of the active EEG pattern” value in the experiment with Male Sprague-Dawley rats [1] (methylphenidate 5 mg/kg IV) is listed as “more than 15 minutes”. Moreover, the Ki in experiment [2] is 150 nM. Further, in the experiment with rats [3], the “reversal of isoflurane-induced general anesthesia” value is recorded as “rapidly reversed isoflurane-induced general anesthesia”. In addition, in the experiment on Male Sprague-Dawley rats [4] (setting [8]), the “Change in mean RR” value was “+4.4 breaths per minute and +2.2 breaths per minute and +3.6 breaths per minute and +4.9 breaths per minute”; the “RR after 5 mg/kg IV Methylphenidate (mean)” value was 86.3 breaths per minute and 78.0 breaths per minute and 84.1 breaths per minute and 75.5 breaths per minute. For the same compound, in the experiment with Male Sprague-Dawley rats [4] (setting [9]), the “Change in mean RR” value is “+29.2 breaths per minute and +9.8 breaths per minute and +50.36 breaths per minute and +18.9 breaths per minute”; the “RR after 5 mg/kg IV Methylphenidate (mean)” value is 154 breaths per minute and 112.6 breaths per minute and 94.2 breaths per minute and 153.8 breaths per minute and 116.7 breaths per minute. In addition, the “changes in tidal volume” value with Male Sprague-Dawley rats [4] (methylphenidate 5 mg/kg IV after droperidol 0.5 mg/kg IV, four rats, one increase, three decreases) is reported as 4-17%. In the experiment on Male Sprague-Dawley rats [4] (methylphenidate 5 mg/kg IV after normal saline, isoflurane 1.5%), the “changes in tidal volume” value was “the changes were small and inconsistent”. Besides, the “changes in tidal volume” value in the experiment with Male Sprague-Dawley rats [4] (methylphenidate 5 mg/kg IV after normal saline, isoflurane 1.5%, listed as Methylphenidate) was “tidal volume remained essentially unchanged”. In the experiment with rats [5], the “rats with signs of arousal and restoration of righting within 4 min” value was 5/6. Moreover, the “time to restoration of righting in the rat with delayed arousal response” value in the experiment with rats [5] (one rat) was found to be 25 min. Further, the “time to emergence (restoration of righting) after a single dose of propofol” value with rats [6] was 433 ± 24 s. In the experiment on Male Sprague-Dawley rats [7] (setting [10]), the “P2CO2 after 5 mg/kg IV Methylphenidate (mean)” value was found to be 35 mmHg, the “P2O2 after 5 mg/kg IV Methylphenidate (mean)” value is listed as 241 mmHg and the “pH after 5 mg/kg IV Methylphenidate (mean)” value was 7.51. For the same compound, the “calculated increase in alveolar ventilation (VA)” value in the experiment with Male Sprague-Dawley rats [7] (from paCO2 pre/post methylphenidate, assuming no change in baseline metabolism) is listed as 24±6%.
